Test results: article PMC10425210 (The Journal of Clinical Investigation, 2023)
“And” between values parts separate entries of the source, which are not always exact repeats. Equal values may be shown once. “Also recorded” adds a separate entry of the source. Read-outs that look alike come from different tables or passages of the source.

Test system: SHIV-SF162P3
Type: in vivo, rhesus macaques

Question: With `CC(C)(C#Cc1ccc(-c2ccc(Cl)c3c(NS(C)(=O)=O)nn(CC(F)(F)F)c23)c([C@H](Cc2cc(F)cc(F)c2)NC(=O)Cn2nc(C(F)(F)F)c3c2C(F)(F)[C@@H]2C[C@H]32)n1)S(C)(=O)=O` [LEN, Lenacapavir] as the compound, how does the “Intact SHIV DNA / 10M PBMC” value (animal V430, 50 mg/kg, Wk 2 post challenge) read?
Answer: The value was 1 / 10M PBMC.

Question: And the “Intact SHIV DNA / 10M PBMC” value (animal V430, 50 mg/kg, Wk 10 post challenge)?
Answer: The value was 1 / 10M PBMC.

Question: And the “Plasma SHIV RNA” value (animal V430, 50 mg/kg, week 0 post challenge)?
Answer: Its value is 62 copies per mL.

Question: And the “Plasma SHIV RNA” value (animal V430, 50 mg/kg, week 1 post challenge)?
Answer: The value was 62 copies per mL.

Question: And the “Plasma SHIV RNA” value (animal V430, 50 mg/kg, week 2 post challenge)?
Answer: Its value is 62 copies per mL.

Question: And the “Plasma SHIV RNA” value (animal V430, 50 mg/kg, week 3 post challenge)?
Answer: Its value is 62 copies per mL.

Question: What about the “Plasma SHIV RNA” value (animal V430, 50 mg/kg, week 4 post challenge) of the same compound?
Answer: The value was 62 copies per mL.

Question: And the “Plasma SHIV RNA” value (animal V430, 50 mg/kg, week 5 post challenge)?
Answer: Its value is 62 copies per mL.

Question: And the “Plasma SHIV RNA” value (animal V430, 50 mg/kg, week 6 post challenge)?
Answer: Its value is 62 copies per mL.

Question: What about the “Plasma SHIV RNA” value (animal V430, 50 mg/kg, week 7 post challenge) of the same compound?
Answer: The value was 62 copies per mL.

Question: And the “Plasma SHIV RNA” value (animal V430, 50 mg/kg, week 8 post challenge)?
Answer: The value was 62 copies per mL.

Question: What about the “Plasma SHIV RNA” value (animal V430, 50 mg/kg, week 9 post challenge) of the same compound?
Answer: The value was 62 copies per mL.

Question: And the “Plasma SHIV RNA” value (animal V430, 50 mg/kg, week 10 post challenge)?
Answer: Its value is 62 copies per mL.

Question: And the “Plasma SHIV RNA” value (animal V430, 50 mg/kg, week 11 post challenge)?
Answer: Its value is 62 copies per mL.

Question: What about the “Plasma SHIV RNA” value (animal V430, 50 mg/kg, week 12 post challenge) of the same compound?
Answer: Its value is 62 copies per mL.

Question: What about the “Plasma SHIV RNA” value (animal V430, 50 mg/kg, week 13 post challenge) of the same compound?
Answer: The value was 62 copies per mL.

Question: And the “Plasma SHIV RNA” value (animal V430, 50 mg/kg, week 14 post challenge)?
Answer: The value was 62 copies per mL.

Question: What about the “Plasma SHIV RNA” value (animal V430, 50 mg/kg, week 15 post challenge) of the same compound?
Answer: The value was 62 copies per mL.

Question: And the “Plasma SHIV RNA” value (animal V430, 50 mg/kg, week 16 post challenge)?
Answer: Its value is 62 copies per mL.

Question: And the “Plasma SHIV RNA” value (animal V430, 50 mg/kg, week 17 post challenge)?
Answer: The value was 62 copies per mL.

Question: And the “Plasma SHIV RNA” value (animal V430, 50 mg/kg, week 18 post challenge)?
Answer: The value was 62 copies per mL.

Question: And the Challenge outcome (animal V435, 75 mg/kg)?
Answer: The Challenge outcome was “Infected”.

Question: What about the “Intact SHIV DNA / 10M PBMC” value (animal V435, 75 mg/kg, Wk 2 post challenge) of the same compound?
Answer: The value was 1890.13 / 10M PBMC.

Question: And the “Plasma SHIV RNA” value (animal V435, 75 mg/kg, week 0 post challenge)?
Answer: Its value is 62 copies per mL.

Question: And the “Plasma SHIV RNA” value (animal V435, 75 mg/kg, week 1 post challenge)?
Answer: The value was 62 copies per mL.

Question: And the “Plasma SHIV RNA” value (animal V435, 75 mg/kg, week 2 post challenge)?
Answer: Its value is 756278 copies per mL.

Question: And the “Plasma SHIV RNA” value (animal V435, 75 mg/kg, week 6 post challenge)?
Answer: The value was 242042 copies per mL.

Question: What about the “Plasma SHIV RNA” value (animal V435, 75 mg/kg, week 7 post challenge) of the same compound?
Answer: The value was 286179 copies per mL.

Question: What about the “Plasma SHIV RNA” value (animal V435, 75 mg/kg, week 9 post challenge) of the same compound?
Answer: The value was 32896 copies per mL.

Question: What about the “Plasma SHIV RNA” value (animal V435, 75 mg/kg, week 10 post challenge) of the same compound?
Answer: The value was 40477 copies per mL.

Question: And the “Plasma SHIV RNA” value (animal V435, 75 mg/kg, week 11 post challenge)?
Answer: The value was 31394 copies per mL.

Question: And the “Plasma SHIV RNA” value (animal V435, 75 mg/kg, week 12 post challenge)?
Answer: Its value is 7502 copies per mL.

Question: And the “Plasma SHIV RNA” value (animal V435, 75 mg/kg, week 13 post challenge)?
Answer: The value was 16622 copies per mL.

Question: And the “Plasma SHIV RNA” value (animal V435, 75 mg/kg, week 14 post challenge)?
Answer: The value was 6647 copies per mL.

Question: What about the “Plasma SHIV RNA” value (animal V435, 75 mg/kg, week 15 post challenge) of the same compound?
Answer: Its value is 46117 copies per mL.

Question: And the “Plasma SHIV RNA” value (animal V435, 75 mg/kg, week 16 post challenge)?
Answer: Its value is 21357 copies per mL.

Question: What about the “Plasma SHIV RNA” value (animal V435, 75 mg/kg, week 17 post challenge) of the same compound?
Answer: The value was 55828 copies per mL.

Question: What about the “Plasma SHIV RNA” value (animal V435, 75 mg/kg, week 18 post challenge) of the same compound?
Answer: The value was 34073 copies per mL.

Question: What about the “Plasma SHIV RNA” value (animal V435, 75 mg/kg, week 19 post challenge) of the same compound?
Answer: Its value is 913 copies per mL.

Question: And the “Plasma SHIV RNA” value (animal V435, 75 mg/kg, week 20 post challenge)?
Answer: Its value is 62 copies per mL.

Question: What about the Challenge outcome (animal V470, 50 mg/kg) of the same compound?
Answer: Its Challenge outcome is “Not infected”.

Question: What about the “Intact SHIV DNA / 10M PBMC” value (animal V470, 50 mg/kg, Wk 2 post challenge) of the same compound?
Answer: Its value is 1 / 10M PBMC.

Question: What about the “Intact SHIV DNA / 10M PBMC” value (animal V470, 50 mg/kg, Wk 10 post challenge) of the same compound?
Answer: The value was 1 / 10M PBMC.

Question: And the “Plasma SHIV RNA” value (animal V470, 50 mg/kg, week 0 post challenge)?
Answer: The value was 62 copies per mL.

Question: What about the “Plasma SHIV RNA” value (animal V470, 50 mg/kg, week 1 post challenge) of the same compound?
Answer: Its value is 62 copies per mL.

Question: And the “Plasma SHIV RNA” value (animal V470, 50 mg/kg, week 2 post challenge)?
Answer: Its value is 62 copies per mL.

Question: And the “Plasma SHIV RNA” value (animal V470, 50 mg/kg, week 3 post challenge)?
Answer: Its value is 62 copies per mL.

Question: What about the “Plasma SHIV RNA” value (animal V470, 50 mg/kg, week 4 post challenge) of the same compound?
Answer: The value was 62 copies per mL.

Question: What about the “Plasma SHIV RNA” value (animal V470, 50 mg/kg, week 5 post challenge) of the same compound?
Answer: Its value is 62 copies per mL.

Question: And the “Plasma SHIV RNA” value (animal V470, 50 mg/kg, week 6 post challenge)?
Answer: The value was 62 copies per mL.

Question: And the “Plasma SHIV RNA” value (animal V470, 50 mg/kg, week 7 post challenge)?
Answer: The value was 62 copies per mL.

Question: What about the “Plasma SHIV RNA” value (animal V470, 50 mg/kg, week 8 post challenge) of the same compound?
Answer: The value was 62 copies per mL.

Question: What about the “Plasma SHIV RNA” value (animal V470, 50 mg/kg, week 9 post challenge) of the same compound?
Answer: Its value is 62 copies per mL.

Question: And the “Plasma SHIV RNA” value (animal V470, 50 mg/kg, week 10 post challenge)?
Answer: Its value is 62 copies per mL.

Question: What about the “Plasma SHIV RNA” value (animal V470, 50 mg/kg, week 11 post challenge) of the same compound?
Answer: The value was 62 copies per mL.

Question: What about the “Plasma SHIV RNA” value (animal V470, 50 mg/kg, week 12 post challenge) of the same compound?
Answer: The value was 62 copies per mL.

Question: What about the “Plasma SHIV RNA” value (animal V470, 50 mg/kg, week 13 post challenge) of the same compound?
Answer: Its value is 62 copies per mL.

Question: What about the “Plasma SHIV RNA” value (animal V470, 50 mg/kg, week 14 post challenge) of the same compound?
Answer: Its value is 62 copies per mL.

Question: And the “Plasma SHIV RNA” value (animal V470, 50 mg/kg, week 15 post challenge)?
Answer: The value was 62 copies per mL.

Question: And the “Plasma SHIV RNA” value (animal V470, 50 mg/kg, week 16 post challenge)?
Answer: The value was 62 copies per mL.

Question: What about the “Plasma SHIV RNA” value (animal V470, 50 mg/kg, week 17 post challenge) of the same compound?
Answer: The value was 62 copies per mL.

Question: What about the “Plasma SHIV RNA” value (animal V470, 50 mg/kg, week 18 post challenge) of the same compound?
Answer: Its value is 62 copies per mL.

Question: What about the “reduction of the rate of infection per exposure” value (compared with the untreated group) of the same compound?
Answer: The value was “more than 2 fold”.

Question: And the “intact proviral DNA assay (IPDA) signal” value (eight SHIV-negative animals, weeks 2 and 10)?
Answer: The value was “No signal was detected”.

Question: What about the “Peak Plasma SHIV RNA” value (individual LEN-dosed infected animals) of the same compound?
Answer: Its value is 299412 copies/mL and 1140343 copies/mL and 35193943 copies/mL.

Question: What about the “animals viremic after challenge” value (of 11 LEN-dosed animals, 100 TCID50, 2 weeks after challenge) of the same compound?
Answer: The value was 3 animals.

Question: What about the “anti-capsid (p27) antibody ELISA” value (other 8 animals, through week 10 after challenge) of the same compound?
Answer: The value was “no antibodies were detectable”.

Question: What about the “LEN-dosed animals with confirmed uninfected status” value (plasma PCR, serology, IPDA) of the same compound?
Answer: The value was 8 of 11.

Question: And the Challenge outcome (rhesus monkey, in vivo)?
Answer: Its Challenge outcome is “Not infected”.

Question: And the “Intact SHIV DNA / 10M PBMC” value (rhesus monkey, in vivo)?
Answer: The value was 1 / 10M PBMC.

Question: What about the “Plasma SHIV RNA” value (rhesus monkey, in vivo) of the same compound?
Answer: Its value is 62 copies per mL.

Question: What about the “resistance emergence, capsid sequence of plasma virus” value (rhesus monkey, in vivo) of the same compound?
Answer: Its value is “no emerging mutations in capsid; also recorded: No resistance was selected”.

Question: And the “peak viremia, LEN-dosed infected vs untreated animals” value (same viral inoculum)?
Answer: The value was “no significant differences”.
